In ChEMBL document CHEMBL1128976, “Unsaturated thioacetic acids as novel mechanism-based inhibitors of peptidylglycine -hydroxylating monooxygenase” (Bioorg Med Chem Lett, 1996):

Molecular target: T1, Peptidyl-glycine alpha-amidating monooxygenase (Homo sapiens) (UniProt P19021)
T1 sequence (whole entry): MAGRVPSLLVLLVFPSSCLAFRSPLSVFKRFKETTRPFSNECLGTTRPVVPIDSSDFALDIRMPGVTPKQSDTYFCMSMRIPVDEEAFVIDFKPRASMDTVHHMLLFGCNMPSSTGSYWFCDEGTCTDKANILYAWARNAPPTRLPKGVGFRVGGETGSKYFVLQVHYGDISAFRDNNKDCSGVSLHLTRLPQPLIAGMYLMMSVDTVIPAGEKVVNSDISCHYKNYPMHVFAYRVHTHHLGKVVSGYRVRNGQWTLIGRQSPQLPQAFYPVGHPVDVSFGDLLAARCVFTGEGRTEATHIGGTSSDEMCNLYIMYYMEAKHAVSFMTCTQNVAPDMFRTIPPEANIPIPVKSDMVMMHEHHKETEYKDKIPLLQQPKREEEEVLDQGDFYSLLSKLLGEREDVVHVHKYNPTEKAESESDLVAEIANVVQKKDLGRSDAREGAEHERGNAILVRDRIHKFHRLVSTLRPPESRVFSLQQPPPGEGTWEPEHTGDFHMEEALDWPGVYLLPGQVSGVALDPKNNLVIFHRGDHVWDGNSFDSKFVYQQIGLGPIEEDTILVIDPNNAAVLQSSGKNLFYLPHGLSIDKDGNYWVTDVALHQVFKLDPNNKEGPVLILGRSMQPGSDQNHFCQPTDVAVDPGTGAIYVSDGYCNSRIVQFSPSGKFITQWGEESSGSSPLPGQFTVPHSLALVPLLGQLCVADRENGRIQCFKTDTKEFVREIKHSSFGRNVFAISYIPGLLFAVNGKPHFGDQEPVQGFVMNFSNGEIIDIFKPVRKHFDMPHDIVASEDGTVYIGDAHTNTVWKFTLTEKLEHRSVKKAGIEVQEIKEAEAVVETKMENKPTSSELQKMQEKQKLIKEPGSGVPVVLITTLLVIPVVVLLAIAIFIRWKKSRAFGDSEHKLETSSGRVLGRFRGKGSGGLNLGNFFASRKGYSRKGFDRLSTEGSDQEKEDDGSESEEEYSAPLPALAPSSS
Experiment: Kinetic constant for inhibition of peptidylglycine alpha hydroxylating monooxygenase (PHM) was determined
Conditions: Equus caballus

K inact [min⁻¹]	Compound
0.2	O=C(O)CS/C=C/c1ccccc1
0.06	O=C(O)CSC#Cc1ccccc1
